Experimental data from ChEMBL document CHEMBL1133560, “Design and synthesis of new orally active nonpeptidic inhibitors of human neutrophil elastase” (J Med Chem, 2000).

Legend:
[1] = Percent oral bioavailability evaluated in rat; assay type: ADME, organism-based; settings: in vivo
[2] = Percent oral bioavailability evaluated in dog; assay type: ADME, organism-based, Canis lupus familiaris; settings: in vivo
[3] = Percent oral bioavailability evaluated in monkey; assay type: ADME, organism-based; settings: cercopithecidae, in vivo
[4] = (§1) Effective dose determined in an animal model which lasted for more than 8 h; assay type: functional
[5] = as §1; assay type: ADME

bioavailability [1] | bioavailability [2] | bioavailability [3] | ED50 [5] | Structure (SMILES) | ED50 [4]
51% | 31% | 18% |  | CC(C)C(NC(=O)Cn1c(-c2ccccc2)ncc(N)c1=O)C(=O)c1nnc(C(C)(C)C)o1 (stereo not given) | 1.4 mg/kg
 |  |  | 7.5 mg/kg | CC(C)C(NC(=O)Cn1c(-c2ccc(F)cc2)ncc(N)c1=O)C(=O)C(F)(F)F (stereo not given) | 
